For one compound, IC50 results are on record in article PMC6230393, “Enhancing TFEB-Mediated Cellular Degradation Pathways by the mTORC1 Inhibitor Quercetin” (Oxidative Medicine and Cellular Longevity, 2018).

This experiment addresses mTOR (Homo sapiens, UniProt P42345). Put plainly: LanthaScreen TR-FRET in vitro kinase assay, purified mTOR (PV4753), GFP-4E-BP1 substrate, […] ATP, […] MnCl2. The experiment is classed as biochemical.

Molecules are shown by their SMILES.

As a reminder, the IC50 is the concentration at which inhibition is half-maximal. A low value points to inhibition by little substance. `O=c1c(O)c(-c2ccc(O)c(O)c2)oc2cc(O)cc(O)c12` [quercetin, 3,3′,4′,5,7-pentahydroxyflavone] returned a half-inhibitory concentration (IC50) of 7.8 µM.
